Source: patent US20220401411A1, “ZAFIRLUKAST DERIVATIVES FOR USE AS CONTRACEPTIVE AGENTS” (Rigshospitalet, priority 2019, published 2022)

Target: T1, human CatSper (Homo sapiens, UniProt Q7RTX7+Q86XQ3+Q8NEC5+Q96P56)
T1 construct: isolated motile sperm cells from freshly ejaculated semen samples of healthy human donors; endogenous in cells; host or cells: motile human sperm cells from ejaculates of healthy donors (swim-up)
Experiment: Inhibition of CatSper activation in human sperm cells, Ca2+-fluorophore plate reader assay
Assay type: cell-based
Conditions: for Inhibition of activation of human CatSper by progesterone / Inhibition of activation of human CatSper by intracellular alkalization via NH4Cl: low μM doses, human sperm cells, [Ca2+]i fluorescence; for Inhibition of activation of human CatSper by progesterone: 500 nM progesterone; for Inhibition of activation of human CatSper by intracellular alkalization via NH4Cl: 3 mM NH4Cl; for IC50: motile human sperm cells (swim-up), Ca2+-fluorophore, CatSper activated by 500 nM progesterone, dose inhibition curve, read-out: IC50, inhibition of progesterone-induced signals through CatSper
From the text: Isolated live and motile human sperm cells were loaded with a Ca^2+-sensitive fluorophore, washed and aliquoted to a 384-well plate placed in a fluorescence plate reader. Readouts in ΔF/F0 (%) on the y-axis reflect the intracellular concentration of Ca^2+ ([Ca^2+],) in the sperm cells as a function of time (FIG. 1, 2, 4) or dose of zafirlukast (FIG. 3).
After measuring the baseline fluorescence for 80s serially diluted doses of zafirlukast as well as a negative buffer control (FIGS. 1 and 4) were added to the sperm cells. Hereafter the measurement was continued for a few minutes before a second addition of 500 nM progesterone (FIG. 1) or 3 mM NH4Cl (FIG. 4) to activate CatSper. […] CatSper-signals induced by 500 nM progesterone (FIG. 2) in the presence of serially diluted doses of zafirlukast are used for the dose inhibition curve for zafirlukast on progesterone-induced signals through CatSper (FIG. 3).
Isolated live and motile human sperm cells were loaded with a Ca^2+-sensitive fluorophore, washed and aliquoted to a 384-well plate placed in a fluorescence plate reader. Readouts in ΔF/F0 (%) on the y-axis reflect the intracellular concentration of Ca^2+ ([Ca^2+],) in the sperm cells as a function of time (FIG. 5, 6, 8) or dose of aniline derivate (FIG. 7).
After measuring the baseline fluorescence for 80s serially diluted doses of aniline derivative as well as a negative buffer control (FIGS. 5 and 8) were added to the sperm cells. Hereafter the measurement was continued for a few minutes before a second addition of 500 nM progesterone (FIG. 5) or 3 mM NH4Cl (FIG. 8) to activate CatSper. […] CatSper-signals induced by 500 nM progesterone (FIG. 6) in the presence of serially diluted doses of the aniline derivative are used for the dose inhibition curve for aniline derivative on progesterone-induced signals through CatSper (FIG. 7).
(§1) To assess the effect of zafirlukast on CatSper in human sperm cells, we first isolated motile sperm cells from freshly ejaculated semen samples of healthy human donors through the swim-up method. Then we loaded these sperm cells with a Ca^2+-fluorophore, i.e. a molecule that emits light more intensively when [Ca^2+], increases. Hereafter we aliquoted these fluorophore-loaded sperm cells to the wells of micro-well plates and inserted the plate into a fluorescence plate reader, that measures the light emitted from the Ca^2+-fluorophore. After measuring the baseline fluorescence for 80s we added to the wells serially diluted doses of zafirlukast (FIGS. 1 and 4). Hereafter we continued the measurement for a few minutes before a second addition of 500 nM progesterone (FIG. 1) or 3 mM NH4Cl (FIG. 4) to activate CatSper.
as §1, with “the aniline derivative” for “zafirlukast”, “[Ca^2*],” for “[Ca^2+],”, “5” for “1”, “8).” for “4).”, “5)” for “1)”, “8)” for “4)”

Inhibition of activation of human CatSper by progesterone | Inhibition of activation of human CatSper by intracellular alkalization via NH4Cl | IC50 [nM] | SMILES
inhibits the activation of human CatSper | inhibits the activation of human CatSper | ~900 | COc1cc(C(=O)NS(=O)(=O)c2ccccc2C)ccc1Cc1cn(C)c2ccc(N)cc12 [aniline derivative]
inhibits the activation of human CatSper | inhibits the activation of human CatSper | ~2200 | COc1cc(C(=O)NS(=O)(=O)c2ccccc2C)ccc1Cc1cn(C)c2ccc(NC(=O)OC3CCCC3)cc12 [zafirlukast]
